From patent US9371331B2, “Modulators of methyl modifying enzymes, compositions and uses thereof” (Constellation Pharmaceuticals, Inc., priority 2012, dated 2016)
Counter-ions that a name gives are not always drawn. Like-named read-outs stand apart in the source and are kept apart here.

Experiments:
Y641N EZH2 = Y641N EZH2 (Homo sapiens, UniProt Q15910, Y641N); assay: Y641N EZH2 assay: as EZH2 assay, with reconstituted H3K27Me2 oligonucleosomes as substrate; assay type: biochemical
EZH2 (rPRC2) = EZH2 (rPRC2) (Homo sapiens, UniProt Q15910); assay: EZH2 assay: rPRC2, biotinylated oligonucleosomes, 3H SAM methyl transfer (FlashPlate scintillation); assay type: biochemical; conditions: biotinylated oligonucleosome substrate
Procedure: Assays were carried out by mixing rPRC2 together with biotinylated oligonucleosome substrates in the presence of the radio-labeled enzyme co-factor, S-adenosyl-1-methionine (^3H SAM) (Perkin Elmer) and monitoring the enzymatically mediated transfer of tritiated methyl groups from ^3H SAM to histone lysine residues. The amount of resulting tritiated methyl histone product was measured by first capturing the biotinylated oligonucleosomes in streptavidin (SAV) coated FlashPlates (Perkin Elmer), followed by a wash step to remove un-reacted ^3H SAM, and then counting on a TopCount NXT 384 well plate scintillation counter (Perkin Elmer). The final assay conditions for EZH2 were as follows: 50 mM Tris Buffer pH 8.5, 1 mM DTT, 69 μM Brij-35 detergent, 5.0 mM MgCl2, 0.1 mg/mL BSA, 0.2 μM ^3H SAM, 0.2 μM biotinylated oligonucleosomes, 3.6 μM H3K27 mc3 peptide and 2 nM EZH2.
A 12.5 μL volume of the HMT enzyme, H3K27me3 peptide and oligonucleosome substrate in assay buffer was added to each well of the assay plate using a Multidrop Combi (ThermoFisher). Compounds were pre-incubated with the enzyme for 20 min, followed by initiation of the methyltransferase reaction by addition of 12.5 μL of ^3H SAM in assay buffer (final volume=25 μL). The final concentrations of compounds ranged from a top default concentration of 80 μM down to 0.16 μM in ten 2-fold dilution steps. Reactions were carried out for 60 minutes and quenched with 20 μL per well of 1.96 mM SAH, 50 mM Tris pH 8.5, 200 mM EDTA. Stopped reactions were transferred to SAV coated Flashplates (Perkin Elmer), incubated for 120 min, washed with a plate washer, and then read on the TopCount NXT (1.0 min/well) to measure the amount of methyl histone product formed during the reaction.

[1] = Y641N EZH2 IC50, Y641N mutant EZH2, H3K27Me2 oligonucleosome substrate
[2] = EZH2 IC50, wild-type EZH2 (rPRC2)

Y641N EZH2, sequence (Q15910 whole entry Y641N): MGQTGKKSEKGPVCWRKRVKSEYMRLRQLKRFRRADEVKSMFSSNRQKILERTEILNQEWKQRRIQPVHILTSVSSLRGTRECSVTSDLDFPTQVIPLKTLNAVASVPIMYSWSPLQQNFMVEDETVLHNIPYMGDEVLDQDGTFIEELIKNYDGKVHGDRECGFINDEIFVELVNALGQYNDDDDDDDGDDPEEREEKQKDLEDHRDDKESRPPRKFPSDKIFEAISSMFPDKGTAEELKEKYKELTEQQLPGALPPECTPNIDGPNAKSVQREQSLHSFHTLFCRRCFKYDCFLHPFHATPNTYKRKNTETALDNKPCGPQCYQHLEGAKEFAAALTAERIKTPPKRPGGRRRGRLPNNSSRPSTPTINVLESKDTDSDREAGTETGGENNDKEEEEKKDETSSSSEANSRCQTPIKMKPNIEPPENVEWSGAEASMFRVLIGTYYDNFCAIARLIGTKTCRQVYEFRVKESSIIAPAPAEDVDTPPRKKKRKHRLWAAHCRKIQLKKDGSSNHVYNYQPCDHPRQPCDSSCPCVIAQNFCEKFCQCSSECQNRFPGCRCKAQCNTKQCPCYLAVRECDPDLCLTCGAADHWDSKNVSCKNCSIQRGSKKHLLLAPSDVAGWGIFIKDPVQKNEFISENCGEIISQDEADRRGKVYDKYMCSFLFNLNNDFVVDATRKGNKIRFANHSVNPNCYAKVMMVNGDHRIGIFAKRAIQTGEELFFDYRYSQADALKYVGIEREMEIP
Y641N EZH2, sequence (O75530 whole entry partner): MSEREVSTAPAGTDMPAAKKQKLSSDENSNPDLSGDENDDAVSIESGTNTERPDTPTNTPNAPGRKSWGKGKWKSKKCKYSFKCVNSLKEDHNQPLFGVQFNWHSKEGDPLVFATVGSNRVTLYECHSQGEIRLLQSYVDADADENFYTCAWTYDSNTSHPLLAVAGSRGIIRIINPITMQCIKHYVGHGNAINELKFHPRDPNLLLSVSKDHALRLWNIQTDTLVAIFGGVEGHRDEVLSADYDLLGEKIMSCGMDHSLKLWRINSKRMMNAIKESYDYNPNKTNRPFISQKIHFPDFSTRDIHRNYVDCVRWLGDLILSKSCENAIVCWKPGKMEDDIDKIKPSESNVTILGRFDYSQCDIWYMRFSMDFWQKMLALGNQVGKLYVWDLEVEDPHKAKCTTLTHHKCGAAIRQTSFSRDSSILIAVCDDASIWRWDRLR
Y641N EZH2, sequence (Q15022 whole entry partner): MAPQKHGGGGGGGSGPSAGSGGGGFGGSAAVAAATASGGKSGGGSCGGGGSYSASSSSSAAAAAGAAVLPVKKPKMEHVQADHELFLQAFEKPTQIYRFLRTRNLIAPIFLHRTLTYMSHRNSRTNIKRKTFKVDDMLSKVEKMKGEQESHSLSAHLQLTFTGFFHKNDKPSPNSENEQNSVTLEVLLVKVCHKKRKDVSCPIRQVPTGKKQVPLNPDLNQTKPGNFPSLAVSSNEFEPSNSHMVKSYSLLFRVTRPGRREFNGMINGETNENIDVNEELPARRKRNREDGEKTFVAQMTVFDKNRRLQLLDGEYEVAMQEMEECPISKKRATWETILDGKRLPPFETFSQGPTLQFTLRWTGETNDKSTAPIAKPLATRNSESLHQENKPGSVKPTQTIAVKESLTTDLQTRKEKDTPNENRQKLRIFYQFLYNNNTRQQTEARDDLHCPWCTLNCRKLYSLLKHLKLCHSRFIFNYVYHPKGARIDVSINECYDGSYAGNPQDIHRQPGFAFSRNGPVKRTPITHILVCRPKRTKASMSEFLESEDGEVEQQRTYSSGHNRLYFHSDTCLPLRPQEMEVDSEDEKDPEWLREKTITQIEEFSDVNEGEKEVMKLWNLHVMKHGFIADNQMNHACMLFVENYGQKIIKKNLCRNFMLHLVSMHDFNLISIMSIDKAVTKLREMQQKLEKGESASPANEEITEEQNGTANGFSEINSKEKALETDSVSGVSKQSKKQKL
EZH2 (rPRC2), sequence (Q15910 whole entry): as the sequence (Q15910 whole entry Y641N) above, with N641Y counted along it
EZH2 (rPRC2), sequence (O75530 whole entry partner): as the sequence (O75530 whole entry partner) above
EZH2 (rPRC2), sequence (Q15022 whole entry partner): as the sequence (Q15022 whole entry partner) above

Structure (SMILES)	IC50 (Y641N EZH2; [1])	IC50 (EZH2 (rPRC2); [2])	IC50 (EZH2 (rPRC2); read-out: EZH2 IC50, wild-type EZH2 (rPRC2))	IC50 (Y641N EZH2; Y641N mutant EZH2, H3K27Me2 oligonucleosome substrate, read-out: Y641N EZH2 IC50)	IC50 (EZH2 (rPRC2); wild-type EZH2 (rPRC2), read-out: EZH2 IC50)
COCC(C)n1c(C)c(C(=O)NCc2c(OC)cc(C)[nH]c2=O)c2ccccc21 (single isomer, unassigned) [Compound 223, N-((4-methoxy-6-methyl-2-oxo-1,2-dihydropyridin-3-yl)methyl)-1-(1-methoxypropan-2-yl)-2-methyl-1H-indole-3-carboxamide]	100 to 1000 nM	< 100 nM	–	–	–
Cc1cc(C)c(CNC(=O)c2c(C)n(C(C)c3cccc(C(N)=O)c3)c3ccccc23)c(=O)[nH]1 (single isomer, unassigned) [Compound 225, (R or S)-1-(1-(3-carbamoylphenyl)ethyl)-N-((4,6-dimethyl-2-oxo-1,2-dihydropyridin-3-yl)methyl)-2-methyl-1H-indole-3-carboxamide]	< 100 nM	< 100 nM	–	–	–
Cc1cc(C)c(CNC(=O)c2c(C)n(C(C)c3cccc(C(N)=O)c3)c3ccccc23)c(=O)[nH]1 (single isomer, unassigned) [Compound 226, (R or S)-1-(1-(3-carbamoylphenyl)ethyl)-N-((4,6-dimethyl-2-oxo-1,2-dihydropyridin-3-yl)methyl)-2-methyl-1H-indole-3-carboxamide]	1000 to 10000 nM	100 to 1000 nM	–	–	–
Cc1cc(C)c(CNC(=O)c2c(C)n(C(C)c3cccc(C#N)c3)c3ccccc23)c(=O)[nH]1 (single isomer, unassigned) [Compound 228, (R or S)-1-(1-(3-cyanophenyl)ethyl)-N-((4,6-dimethyl-2-oxo-1,2-dihydropyridin-3-yl)methyl)-2-methyl-1H-indole-3-carboxamide]	100 to 1000 nM	100 to 1000 nM	–	–	–
Cc1cc(C)c(CNC(=O)c2c(C)n(C(C)c3ccccc3)c3cnccc23)c(=O)[nH]1 (single isomer, unassigned) [Compound 247, (R or S)—N-((4,6-dimethyl-2-oxo-1,2-dihydropyridin-3-yl)methyl)-2-methyl-1-(1-phenylethyl)-1H-pyrrolo[2,3-c]pyridine-3-carboxamide]	< 100 nM	< 100 nM	–	–	–
Cc1cc(C)c(CNC(=O)c2c(C)n(C(C)c3ccccc3)c3cnccc23)c(=O)[nH]1 (single isomer, unassigned) [Compound 248, (R or S)—N-((4,6-dimethyl-2-oxo-1,2-dihydropyridin-3-yl)methyl)-2-methyl-1-(1-phenylethyl)-1H-pyrrolo[2,3-c]pyridine-3-carboxamide]	100 to 1000 nM	–	< 100 nM	–	–
Cc1cc(C)c(CNC(=O)c2c(C)n(C(C)C3CC3)c3ncccc23)c(=O)[nH]1 (single isomer, unassigned) [Compound 252, (R or S)-(±)-1-(1-cyclopropylethyl)-N-((4,6-dimethyl-2-oxo-1,2-dihydropyridin-3-yl)methyl)-2-methyl-1H-pyrrolo[2,3-b]pyridine-3-carboxamide]	100 to 1000 nM	< 100 nM	–	–	–
COCC(C)n1c(C)c(C(=O)NCc2c(OC)cc(C)[nH]c2=O)c2cccnc21 (single isomer, unassigned) [Compound 257, (R or S)-N-((4-methoxy-6-methyl-2-oxo-1,2-dihydropyridin-3-yl)methyl)-1-(1-methoxypropan-2-yl)-2-methyl-1H-pyrrolo[2,3-b]pyridine-3-carboxamide]	1000 to 10000 nM	100 to 1000 nM	–	–	–
COc1cc(C)[nH]c(=O)c1CNC(=O)c1c(C)n(C(C)C(C)OC)c2ncccc12 (single isomer, unassigned) [Compound 267, N-((4-methoxy-6-methyl-2-oxo-1,2-dihydropyridin-3-yl)methyl)-1-((2R or 2S, 3R or 3S)-3-methoxybutan-2-yl)-2-methyl-1H-pyrrolo[2,3-b]pyridine-3-carboxamide]	–	–	–	100 to 1000 nM	< 100 nM
COc1cc(C)[nH]c(=O)c1CNC(=O)c1c(C)n(C(C)c2ccn(C)c(=O)c2)c2ncccc12 (single isomer, unassigned) [Compound 268, (R or S)-N-((4-methoxy-6-methyl-2-oxo-1,2-dihydropyridin-3-yl)methyl)-2-methyl-1-(1-(1-methyl-2-oxo-1,2-dihydropyridin-4-yl)ethyl)-1H-pyrrolo[2,3-b]pyridine-3-carboxamide]	100 to 1000 nM	< 100 nM	–	–	–
COc1cc(C)[nH]c(=O)c1CNC(=O)c1c(C)n(C(C)c2ccn(C)c(=O)c2)c2ncccc12 (single isomer, unassigned) [Compound 269, (R or S)-N-((4-methoxy-6-methyl-2-oxo-1,2-dihydropyridin-3-yl)methyl)-2-methyl-1-(1-(1-methyl-2-oxo-1,2-dihydropyridin-4-yl)ethyl)-1H-pyrrolo[2,3-b]pyridine-3-carboxamide]	1000 to 10000 nM	100 to 1000 nM	–	–	–
COc1cc(C)[nH]c(=O)c1CNC(=O)c1c(C)n(C(C)CS(C)(=O)=O)c2ccccc12 (single isomer, unassigned) [Compound 278, (R or S)-N-((4-methoxy-6-methyl-2-oxo-1,2-dihydropyridin-3-yl)methyl)-2-methyl-1-(1-(methylsulfonyl)propan-2-yl)-1H-indole-3-carboxamide]	1000 to 10000 nM	100 to 1000 nM	–	–	–
COc1cc(C)[nH]c(=O)c1CNC(=O)c1c(C)n([C@H](C)[C@H](OC)C2CC2)c2ncccc12 (single isomer, unassigned) [Compound 285, 1-((1R or S, 2R or S)-1-cyclopropyl-1-methoxypropan-2-yl)-N-((4-methoxy-6-methyl-2-oxo-1,2-dihydropyridin-3-yl)methyl)-2-methyl-1H-pyrrolo[2,3-b]pyridine-3-carboxamide]	1000 to 10000 nM	100 to 1000 nM	–	–	–
COc1cc(C)[nH]c(=O)c1CNC(=O)c1c(C)n([C@H](C)[C@H](OC)C2CC2)c2ncccc12 (single isomer, unassigned) [Compound 292, 1-((1R or S, 2R or S)-1-cyclopropyl-1-methoxypropan-2-yl)-N-((4-methoxy-6-methyl-2-oxo-1,2-dihydropyridin-3-yl)methyl)-2-methyl-1H-pyrrolo[2,3-b]pyridine-3-carboxamide]	100 to 1000 nM	< 100 nM	–	–	–
COc1cc(C)[nH]c(=O)c1CNC(=O)c1c(C)n(C(C)C(C)OC)c2ncccc12 (single isomer, unassigned) [Compound 302, N-((4-methoxy-6-methyl-2-oxo-1,2-dihydropyridin-3-yl)methyl)-1-((2R or 2S, 3R or 3S)-3-methoxybutan-2-yl)-2-methyl-1H-pyrrolo[2,3-b]pyridine-3-carboxamide]	1000 to 10000 nM	100 to 1000 nM	–	–	–
COc1cc(C)[nH]c(=O)c1CNC(=O)c1c(C)n(C(C)C2CCS(=O)(=O)CC2)c2ccccc12 (single isomer, unassigned) [Compound 305, (R or S)-1-(1-(1,1-dioxidotetrahydro-2H-thiopyran-4-yl)ethy1)-N-((4-methoxy-6-methyl-2-oxo-1,2-dihydropyridin-3-yl)methy1)-2-methyl-1H-indole-3-carboxamide]	100 to 1000 nM	< 100 nM	–	–	–
COc1cc(C)[nH]c(=O)c1CNC(=O)c1c(C)n(C(C)C(C)OC)c2ccccc12 (single isomer, unassigned) [Compound 307, Trans-(R or S, R or S)-N-((4-methoxy-6-methyl-2-oxo-1,2-dihydropyridin-3-yl)methyl)-1-(3-methoxybutan-2-yl)-2-methyl-1H-indole-3-carboxamide]	< 100 nM	< 100 nM	–	–	–
COc1cc(C)[nH]c(=O)c1CNC(=O)c1c(C)n(C(C)C(C)OC)c2ccccc12 (single isomer, unassigned) [Compound 308, Trans-(R or S, R or S)-N-((4-methoxy-6-methyl-2-oxo-1,2-dihydropyridin-3-yl)methyl)-1-(3-methoxybutan-2-yl)-2-methyl-1H-indole-3-carboxamide]	100 to 1000 nM	100 to 1000 nM	–	–	–
COc1cc(C)[nH]c(=O)c1CNC(=O)c1c(C)n(C(C)C2CCN(CC(=O)O)CC2)c2ccccc12 (single isomer, unassigned) [Compound 364, (R or S)-2-(4-(1-(3-((4-methoxy-6-methyl-2-oxo-1,2-dihydropyridin-3-yl)methylcarbamoyl)-2-methyl-1H-indol-1-yl)ethyl)piperidin-1-yl) acetic acid]	100 to 1000 nM	< 100 nM	–	–	–
Cc1cc(C)c(CNC(=O)c2c(C)n(C(C)C3CCN(C4CNC4)CC3)c3ccccc23)c(=O)[nH]1 (single isomer, unassigned) [Compound 376, (R or S)-1-(1-(1-(azetidin-3-yl)piperidin-4-yl)ethyl)-N-((4,6-dimethyl-2-oxo-1,2-dihydropyridin-3-yl)methyl)-2-methyl-1 H-indole-3-carboxamide hydrochloride]	< 100 nM	< 100 nM	–	–	–
